Where “and” joins values, the source holds several entries; their conditions need not be identical. Identical values can stand only once. No end group written: not given here.
How the values were obtained:
[1] = tested on: RMAS/HHD cells pulsed with TERT988; test: Avidity of CTL lines for native TERT988 (51Cr release); type: cell-based, HHD mice; settings: TERT988Y primed spleen cells
Procedure: (§1) HHD mice were injected subcutaneously with 100 μg of nonamer peptides emulsified in incomplete Freund's adjuvant (IFA) in the presence of 150 μg of the I-Ab restricted HBVcore128 T-helper epitope. Spleen cells (5×10^7 cells in 10 ml) from immunized HHD mice were stimulated in vitro with peptide (10 μM) in RPMI1640+10% FCS for five days. The CTL lines were established by weekly re-stimulation in vitro with irradiated spleen cells in the presence of peptide and 50 U/ml IL-2 (Proleukin, Chiron Corp., Emeryville, Calif.).
(§2) Murine RMAS/HHD cells were used as targets for cytotoxicity as described (Tourdot, Scardino et al. 2000). Briefly, 2.5×10^3 51Cr-labeled targets were pulsed with increasing doses (0.00001-10 μM) of peptides at 37° C. for 60 min. Effector cells in 100 μl were then added and incubated at 37° C. for 4 hours. After incubation, 100 μl of supernatant were collected and radioactivity was measured in a gamma counter. The specific lysis was determined as: Lysis=(Experimental Release−Spontaneous Release)/(Maximal Release−Spontaneous Release). CTL avidity is defined as the peptide concentration that gives half the maximal lysis. […] In Vivo Tumor Protection Assay
(§3) HHD mice were immunized with the optimized cryptic TERT988Y peptide. Eleven days later, spleen cells from vaccinated mice were pooled and in vitro serially stimulated with 10 μM of either TERT988Y or the native cryptic TERT988 peptides in the presence of 50 IU/ml of IL2. Stimulations were repeated every week. After the first, third and sixth in vitro stimulation, CTL lines were tested for their avidity for the native TERT988 peptide in a classical ^51Cr release cytotoxicity assay (Table 5).

EL4/HHD tumor cells = test: In vivo tumor protection assay; parameters: species or system HHD mice; settings: for Survival post-challenge / Survival post-challenge (days): individual mice
Procedure: HHD mice were vaccinated with 100 μg of peptide emulsified in IFA in the presence of 150 μg of the 1 Ab restricted HBVcore128 epitope once and then again two weeks later. One week after the second vaccination they were challenged subcutaneously with 2×10^4 EL4/HHD cells. Survival was recorded every two days.
HHD mice were vaccinated with the optimized cryptic TERT572Y and TERT988Y peptides and fifteen days later boosted with either the same optimized or the corresponding native cryptic peptide. Ten days after the boost, mice were challenged with EL4/HHD tumor cells and monitored for tumor growth and survival. Mice primed and boosted with the gp100154 peptide were used as negative controls (Table 8). 100% of control mice died by day 43 post-challenge.

[2] = tested on: RMAS/HHD cells pulsed with TERT572; test: Avidity for TERT572 of CTL after in vivo prime and boost; settings: individual HHD mice, 1st vaccination TERT572Y, 2nd vaccination the labelled peptide
Procedure: as §1, §2
HHD mice were vaccinated with the optimized cryptic TERT572Y peptide described above. Fifteen days later, they were boosted with either the same optimized or the native cryptic TERT572 peptide. […]

[3] = Storage stability of vaccine peptides; type: physicochemical; settings: more than two years of storage at −80° C.
Procedure: The vaccine consisted of optimized TERT572Y (YLFFYRKSV) (SEQ ID NO:2) and native TERT572 (RLFFYRKSV) (SEQ ID NO:1) peptides emulsified in Montanide ISA51 (Seppic Inc, France). The vaccine peptides were synthesized at the Faculty of Pharmacy, University of Patras (Greece) by means of solid-phase Fmoc/Bu chemistry. Quality assurance studies included confirmation of identity, sterility and purity (>95% for both peptides). […] Each peptide was prepared as a lyophilized powder for reconstitution and dilution in sterile water.

[4] = tested on: patients treated with TERT540; settings: cited from earlier work
[5] = tested on: RMAS/HHD cells pulsed with MAGE-A248D9; test: Avidity of CTL lines for native MAGE-A248D9 (51Cr release); type: cell-based, HHD mice; settings: MAGE-A248V9 primed spleen cells
Procedure: as §1, §2
as §3, with “optimized MAGE-A248V9 peptide, corresponding to the” for “optimized”, “MAGE-A248D9 (both described in WO03083124).” for “TERT988Y peptide.”, “100” for “10”, “MAGE-A248V9” for “TERT988Y”, “MAGE-A248D9” for “TERT988”, “6).” for “5).”

[6] = Phase I clinical study: toxicity (NCI Common Toxicity Criteria); type: in vivo, human
Procedure: Patients received a total of six subcutaneous vaccinations administered every 3 weeks. Peptides in 0.5 ml aqueous solution were emulsified with 0.5 ml Montanide ISA51 immediately before being injected. The optimized TERT572Y peptide was used for the first 2 vaccinations and the native TERT572 peptide for the remaining 4 vaccinations. Five dose levels of the peptides were studied; dose levels included 2, 3, 4, 5 and 6 mg of both peptides. Three patients were entered at each dose level. An additional 3 patients were planned to be enrolled at the dose level where a dose-limiting event was observed. Each patient received the same peptide dose for all six vaccinations. No other treatment with possible antitumor activity, i.e., chemotherapy, radiotherapy, hormonal therapy or administration of corticosteroids, was allowed during the course of vaccination.
Before entering the study, all patients were assessed by complete medical history, physical examination, and complete blood cell count with differential, serum chemistry and baseline measurements of relevant tumor markers. Moreover, measurable disease was determined by standard imaging procedures (chest x-ray, ultrasound, computed tomography scans of thorax and abdomen, magnetic resonance imaging (MRI) if indicated, and whole body bone scans). Toxicity during the vaccination protocol was evaluated by repeating the complete blood cell count weekly and by performing medical history, physical examination and serum chemistry every three weeks before each subsequent injection during the vaccination period and every month thereafter during the follow up. Toxicity was assessed and scored using the National Cancer Institute (NCI) Common Toxicity Criteria (Ajani, Welch et al. 1990). Dose-limiting toxicity (DLT) was assessed during the entire vaccination protocol and was defined as the occurrence of any of the following: grade 4 hematologic toxicity; grade 3-4 neutropenia with fever>38.2° C.; grade 3-4 non-hematologic toxicity; and any treatment delay because of toxicity. Dose escalation was discontinued and the DLT dose level was reached if at least 50% of the patients treated at that level develop a DLT. The MTD dose level was defined as the first level below the DLT dose level.

[7] = 1 in vitro stimulation with the labelled peptide (10 μM)
[8] = 3 in vitro stimulations with the labelled peptide
[9] = 6 in vitro stimulations with the labelled peptide
[10] = prime TERT988Y, boost the labelled peptide
[11] = prime TERT572Y, boost the labelled peptide
[12] = 1 in vitro stimulation with the labelled peptide

Q: What does the source list for DLQVNSLQTV (TERT-988) [TERT988]?
A: CTL line avidity [1, 7]: 170 nM; CTL line avidity [1, 8]: 70 nM; CTL line avidity [1, 9]: 3 nM; Survival post-challenge (EL4/HHD tumor cells; [10]): 39 days and 40 days and 41 days; Survival post-challenge (days) (EL4/HHD tumor cells; [10]): 200+ days

Q: With “KTWGQYWQV [Gp100154, reference compound]” as the substance, how does the “Survival post-challenge” value (EL4/HHD tumor cells; prime Gp100154, boost the labelled peptide (negative control)) read?
A: The value was 39 days (2×) and 43 days and 41 days (2×) and 40 days.

Q: What about the “control mice died by day 43 post-challenge” value (EL4/HHD tumor cells; primed and boosted with gp100154) of the same substance?
A: Its value is 100%.

Q: Which results are given for “RLFFYRKSV (TERT-572) [TERT572, native cryptic peptide derived from TERT]”?
A: CTL avidity [2]: 110 nM and 190 nM and 70 nM; purity or concentration after storage [3]: No decrease in purity or concentration; Survival post-challenge (EL4/HHD tumor cells; [11]): 32 days and 35 days and 40 days; Survival post-challenge (days) (EL4/HHD tumor cells; [11]): 200+ days

Q: With “TERT540: dominant peptide TERT540 (hTERT:540-548), literature vaccine (ILAKFLHWL; UniProt O14746 540-548, looked up, fragment)” as the substance, how does the objective clinical response ([4]; 11 patients with renal cancer (Parkhurst, Riley et al. 2004)) read?
A: The objective clinical response was “none of 11 patients”.

Q: And the “patients who responded to the vaccine” value ([4]; TERT540 emulsified in Monatanide (Parkhurst, Riley et al. 2004))?
A: Its value is 50%.

Q: With YLEYRQVPD (MAGE-A-248D9) [MAGE-A248D9] as the substance, how does the CTL avidity [5, 12] read?
A: The CTL avidity was 200 nM.

Q: And the CTL avidity [5, 8]?
A: The CTL avidity was 40 nM.

Q: What about the CTL avidity [5, 9] of the same substance?
A: Its CTL avidity is 0.8 nM.

Q: Which CTL avidity [5, 12] does the source give for YLEYRQVPV (MAGE-A-248V9) [MAGE-A248V9] here?
A: Its CTL avidity is 400 nM.

Q: And the CTL avidity [5, 8]?
A: Its CTL avidity is 450 nM.

Q: What about the CTL avidity [5, 9] of the same substance?
A: The CTL avidity was 320 nM.

Q: For YLFFYRKSV [TERT572Y, YLFFYRKSV], which “hematologic, renal, gastrointestinal or hepatic toxicity” value ([6]; TERT-expressing normal cells and tissues) is on record?
A: Its value is “no significant hematologic, renal, gastrointestinal or hepatic toxicity was observed”.

Q: What about the MTD dose level ([6]; dose levels 2-6 mg) of the same substance?
A: Its MTD dose level is “has not been reached”.

Q: And the “Dose-limiting toxicity (DLT)” value ([6]; dose levels 2-6 mg, entire study)?
A: The value was “No DLT was observed”.

Q: And the signs of autoimmunity ([6]; even 24 months after the end of vaccination)?
A: Its signs of autoimmunity is “none of the patients showed signs of autoimmunity”.

Q: What about the “Toxicity Grade I” value ([6]; individual patients) of the same substance?
A: The value was “no (6×) and Anemia, local skin, fatigue, and anorexia and Thrombo/penia, local skin and Local skin (5×) and thrombocytopenia and Anemia, local skin (3×) and Anemia and Local skin, anemia”.

Q: What about the “Toxicity Grade II” value ([6]; individual patients) of the same substance?
A: The value was “fatigue, nausea and no (16×) and anorexia, fatigue, and nausea and anorexia, fatigue”.

Q: What about the “Toxicity Grade III/IV” value ([6]; individual patients) of the same substance?
A: Its value is “no”.

Q: What about the delayed toxicity ([6]; monthly follow up after completing or discontinuing vaccination) of the same substance?
A: The delayed toxicity was “no signs or findings of delayed toxicity were observed”.

Q: And the “grade 11 anorexia” value ([6]; of 19 patients)?
A: Its value is 2 patients.

Q: What about the “grade 11 fatigue” value ([6]; of 19 patients) of the same substance?
A: Its value is 3 patients.

Q: And the “grade 11 nausea” value ([6]; of 19 patients)?
A: Its value is 2 patients.

Q: And the “grade I anemia” value ([6]; of 19 patients)?
A: Its value is 6 patients.

Q: What about the “grade I anorexia” value ([6]; of 19 patients) of the same substance?
A: Its value is 1 patient.

Q: And the “grade I fatigue” value ([6]; of 19 patients)?
A: The value was 1 patient.

Q: What about the “grade I local skin reaction” value ([6]; of 19 patients) of the same substance?
A: Its value is 11 patients.

Q: What about the “grade I thrombocytopenia” value ([6]; of 19 patients) of the same substance?
A: The value was 2 patients.

Q: And the “patients who developed grade 11 toxicity” value ([6]; of 19 patients)?
A: The value was “Three”.

Q: What about the “patients who developed grade I toxicity” value ([6]; of 19 patients) of the same substance?
A: The value was “Thirteen”.

Q: For YLQVNSLQTV (TERT-988Y1) [TERT988Y], which CTL line avidity [1, 7] is on record?
A: Its CTL line avidity is 300 nM.

Q: And the CTL line avidity [1, 8]?
A: The CTL line avidity was 500 nM.

Q: What about the CTL line avidity [1, 9] of the same substance?
A: The CTL line avidity was 600 nM.

Q: And the “Survival post-challenge” value (EL4/HHD tumor cells; [10])?
A: The value was 40 days (3×) and 43 days (2×).

Q: And the “Survival post-challenge (days)” value (EL4/HHD tumor cells; [10])?
A: The value was 200+ days.

— patent publication US8663645B2, “Use of native peptides and their optimized derivatives for vaccination” (Vaxon Biotech, priority 2005, dated 2014)
